From article PMC3956977, “Crystal structure of E. coli arginyl-tRNA synthetase and ligand binding studies revealed key residues in arginine recognition” (Protein & Cell, 2014)
Changes are numbered by the printed parent chain.

Tests used:
Assay in all cases: isothermal titration calorimetry
Type in all cases: binding
Details in all cases: read-out: Ka (M^-1) (converted)
[1] = target: T1, eArgRS (E. coli arginyl-tRNA synthetase, ArgRS) (Escherichia coli, UniProt P11875)
T1 construct: gene argS; full length, 577 residues; pET-28a-SUMO in E. coli BL21(DE3), N-terminal His-SUMO tag cleaved by Ulp1; mutants made in pET22b/ArgRS
T1 sequence (P11875 1-577): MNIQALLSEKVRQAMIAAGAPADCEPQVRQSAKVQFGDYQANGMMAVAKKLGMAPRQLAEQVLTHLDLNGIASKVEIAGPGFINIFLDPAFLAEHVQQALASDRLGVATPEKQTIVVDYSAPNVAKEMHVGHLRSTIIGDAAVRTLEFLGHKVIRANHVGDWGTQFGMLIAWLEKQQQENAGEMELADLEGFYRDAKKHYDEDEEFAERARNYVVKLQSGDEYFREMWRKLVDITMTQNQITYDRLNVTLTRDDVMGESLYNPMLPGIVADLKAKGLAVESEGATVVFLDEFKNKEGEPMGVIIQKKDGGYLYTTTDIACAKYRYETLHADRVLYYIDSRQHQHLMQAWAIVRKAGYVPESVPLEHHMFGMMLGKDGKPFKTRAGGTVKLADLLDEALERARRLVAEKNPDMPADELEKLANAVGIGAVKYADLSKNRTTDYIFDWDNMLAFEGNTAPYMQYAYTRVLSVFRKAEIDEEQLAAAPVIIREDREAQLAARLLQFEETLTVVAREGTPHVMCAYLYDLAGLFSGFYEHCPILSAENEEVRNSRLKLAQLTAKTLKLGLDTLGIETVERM
Text: (§1) isothermal titration calorimetry on eArgRS (E. coli arginyl-tRNA synthetase, ArgRS)

[2] = target: T2, eArgRS (E. coli arginyl-tRNA synthetase, ArgRS) (Escherichia coli, UniProt P11875, R324A)
T2 construct: gene argS; full length, 577 residues; pET-28a-SUMO in E. coli BL21(DE3), N-terminal His-SUMO tag cleaved by Ulp1; mutants made in pET22b/ArgRS
T2 sequence (P11875 1-577 R324A): T1 sequence (P11875 1-577) with R324A
Text: as §1

[3] = target: T3, eArgRS (E. coli arginyl-tRNA synthetase, ArgRS) (Escherichia coli, UniProt P11875, Y313A)
T3 construct: gene argS; full length, 577 residues; pET-28a-SUMO in E. coli BL21(DE3), N-terminal His-SUMO tag cleaved by Ulp1; mutants made in pET22b/ArgRS
T3 sequence (P11875 1-577 Y313A): T1 sequence (P11875 1-577) with Y313A
Text: as §1

Work on N=C(N)NCCC[C@H](N)C(=O)O [L-arginine] yielded a Kd [1] of 46.5 µM, a Kd [2] of 191 µM and a Kd [3] of 80.6 µM.
